Test results as given in patent US12371454B2, “Cyclic peptide compound having Kras inhibitory action” (priority 2019, dated 2025).
Positions of bridges follow the written chain, without caps; N, C: chain ends. Non-standard residues stand in square brackets, D forms with d. Residues, ends and D or L forms follow the SMILES beside them. *: point of attachment. hPhe(3-Cl-4-CF3) = N[C@@H](CCc1ccc(C(F)(F)F)c(Cl)c1)C(=O)O; hPhe(3-F,4-CF3) = N[C@@H](CCc1ccc(C(F)(F)F)c(F)c1)C(=O)O; 3Oxa8azabicyclo(3.2.1)octane = C1CC2COCC1N2*; NMePhe(4-Cl) = CN[C@@H](Cc1ccc(Cl)cc1)C(=O)O; NMeGly(cPent) = CN[C@H](C(=O)O)C1CCCC1; NMeCha = CN[C@@H](CC1CCCCC1)C(=O)O; NMeAhp(2) = CCCCC[C@H](NC)C(=O)O; NMeChg = CN[C@H](C(=O)O)C1CCCCC1; NMeI = CC[C@H](C)[C@H](NC)C(=O)O; Gly(cBu) = N[C@H](C(=O)O)C1CCC1; NMeD = CN[C@@H](CC(=O)O)C(=O)O; NMeL = CN[C@@H](CC(C)C)C(=O)O; NMeV = CN[C@H](C(=O)O)C(C)C; d(β3hA) = C[C@@H](N)CC(=O)O; NMeS = CN[C@@H](CO)C(=O)O; NMeA = CN[C@@H](C)C(=O)O; Piperidide = C1CCN(*)CC1; Pyrrolidide = C1CCN(*)C1; Ac5c = NC1(C(=O)O)CCCC1; Aze = O=C(O)[C@@H]1CCN1; NEtG = CCNCC(=O)O; Sar = CNCC(=O)O; Propyl = CCC*

System: Human pancreatic cancer cell line AsPC-1
Assay: Measurement of AsPC-1 cell growth inhibition (AsPC-1 CGI)
Format: cell-based
Settings: 96 h
Experimental: Measurement of AsPC-1 Cell Growth Inhibition (AsPC-1 CGI)
Test compounds were serially diluted with dimethyl sulfoxide, and 200 nL was then dispensed to a U-bottom 96-well plate using Labcyte Echo. Human pancreatic cancer cell line AsPC-1 was suspended in RPMI-1640 medium supplemented with 15% fetal bovine serum to prepare a cell suspension at 1000 cells/100 μL. The cell suspension was dispensed to a plate containing a test compound at 100 μL per well and incubated at 37° C. in a 5% carbon dioxide gas incubator. 96 hours later, 80 μL of CellTiter-Glo (Promega) was added to each well and […] was measured.

Structure (SMILES)	IC50
CC(C)C[C@H]1C(=O)N[C@@H](C2CCC2)C(=O)N(C)[C@@H](C)C(=O)N2CC[C@H]2C(=O)N(C)[C@@H](CC2CCCCC2)C(=O)N(C)CC(=O)N[C@@H](CCc2ccc(C(F)(F)F)c(Cl)c2)C(=O)N2CCC[C@H]2C(=O)NC2(CCCC2)C(=O)N(C)[C@@H](C(C)C)C(=O)N(C)[C@H](C(=O)N2CCCCC2)CC(=O)N1C [Compound 157] ([NMeL][Gly(cBu)][NMeA][Aze][NMeCha][Sar][hPhe(3-Cl-4-CF3)]P[Ac5c][NMeV][NMeD]-Piperidide; lactam N-11)	100 to 500 nM
CC[C@H](C)[C@@H]1NC(=O)[C@H](CC(C)C)N(C)C(=O)C[C@@H](C(=O)N2CCCCC2)N(C)C(=O)[C@H](C2CCCCC2)N(C)C(=O)C2(CCCC2)NC(=O)CN(CC)C(=O)[C@H](CCc2ccc(C(F)(F)F)c(Cl)c2)NC(=O)CN(C)C(=O)[C@H](CC2CCCCC2)N(C)C(=O)CN(C)C(=O)CN(C)C1=O [Compound 160] ([NMeL]I[Sar][Sar][NMeCha][Sar][hPhe(3-Cl-4-CF3)][NEtG][Ac5c][NMeChg][NMeD]-Piperidide; lactam N-11)	50 to 100 nM
CCCCC[C@H]1C(=O)N[C@@H]([C@@H](C)CC)C(=O)N[C@@H](C)C(=O)N2CC[C@H]2C(=O)N(C)[C@@H](COCCC)C(=O)N(C)CC(=O)N[C@@H](CCc2ccc(C(F)(F)F)c(Cl)c2)C(=O)N2CCC[C@H]2C(=O)NC2(CCCC2)C(=O)N(C)[C@@H](C2CCCC2)C(=O)N(C)[C@H](C(=O)N2C3CCC2COC3)CC(=O)N1C [Compound 163] ([NMeAhp(2)]IA[Aze][NMeS](Propyl)[Sar][hPhe(3-Cl-4-CF3)]P[Ac5c][NMeGly(cPent)][NMeD]-{3Oxa8azabicyclo(3.2.1)octane}; lactam N-11)	50 to 100 nM
CC[C@H](C)[C@@H]1NC(=O)[C@H](CC(C)C)N(C)C(=O)C[C@@H](C(=O)N2CCCCC2)N(C)C(=O)[C@H](C2CCCC2)N(C)C(=O)C2(CCCC2)NC(=O)[C@@H]2CCCN2C(=O)[C@H](CCc2ccc(C(F)(F)F)c(Cl)c2)NC(=O)CN(C)C(=O)[C@H](C2CCCC2)N(C)C(=O)[C@@H]2CCN2C(=O)[C@H](C)N(C)C1=O [Compound 182] ([NMeL]I[NMeA][Aze][NMeGly(cPent)][Sar][hPhe(3-Cl-4-CF3)]P[Ac5c][NMeGly(cPent)][NMeD]-Piperidide; lactam N-11)	20 to 50 nM
CC[C@H](C)[C@@H]1NC(=O)[C@H](CC(C)C)N(C)C(=O)C[C@@H](C(=O)N2CCCC2)N(C)C(=O)[C@H](C2CCCC2)N(C)C(=O)C2(CCCC2)NC(=O)[C@@H]2CCCN2C(=O)[C@H](CCc2ccc(C(F)(F)F)c(Cl)c2)NC(=O)CN(C)C(=O)[C@H](C2CCCC2)N(C)C(=O)[C@@H]2CCN2C(=O)[C@H](C)N(C)C1=O [Compound 201] ([NMeL]I[NMeA][Aze][NMeGly(cPent)][Sar][hPhe(3-Cl-4-CF3)]P[Ac5c][NMeGly(cPent)][NMeD]-Pyrrolidide; lactam N-11)	20 to 50 nM
CC[C@H](C)[C@@H]1NC(=O)[C@H](CC(C)C)N(C)C(=O)C[C@@H](C)NC(=O)[C@H](C(C)C)N(C)C(=O)C2(CCCC2)NC(=O)[C@@H]2CCCN2C(=O)[C@H](CCc2ccc(C(F)(F)F)c(Cl)c2)NC(=O)CN(C)C(=O)[C@H](Cc2ccc(Cl)cc2)N(C)C(=O)[C@@H]2CCN2C(=O)CN(C)C1=O [Compound 207] (cyclo([Ac5c][NMeV][d(β3hA)][NMeL]I[Sar][Aze][NMePhe(4-Cl)][Sar][hPhe(3-Cl-4-CF3)]P))	100 to 500 nM
CC[C@H](C)[C@@H]1NC(=O)[C@H](C2CCCC2)N(C)C(=O)C[C@@H](C(=O)N2CCCCC2)N(C)C(=O)[C@H](C(C)C)N(C)C(=O)C2(CCCC2)NC(=O)[C@@H]2CCCN2C(=O)[C@H](CCc2ccc(C(F)(F)F)c(Cl)c2)NC(=O)CN(C)C(=O)[C@H](CC2CCCCC2)N(C)C(=O)[C@@H]2CCN2C(=O)[C@H](C)N(C)C1=O [Compound 225] ([NMeGly(cPent)]I[NMeA][Aze][NMeCha][Sar][hPhe(3-Cl-4-CF3)]P[Ac5c][NMeV][NMeD]-Piperidide; lactam N-11)	100 to 500 nM
CCCOC[C@H]1C(=O)N(C)CC(=O)N[C@@H](CCc2ccc(C(F)(F)F)c(F)c2)C(=O)N2CCC[C@H]2C(=O)NC2(CCCC2)C(=O)N(C)[C@@H]([C@@H](C)CC)C(=O)N(C)[C@H](C(=O)N2CCCCC2)CC(=O)N(C)[C@@H](CC(C)C)C(=O)N[C@@H]([C@@H](C)CC)C(=O)N(C)[C@@H](C)C(=O)N2CC[C@H]2C(=O)N1C [Compound 236] ([NMeL]I[NMeA][Aze][NMeS](Propyl)[Sar][hPhe(3-F,4-CF3)]P[Ac5c][NMeI][NMeD]-Piperidide; lactam N-11)	20 to 50 nM
CC[C@H](C)[C@@H]1NC(=O)[C@H](CC(C)C)N(C)C(=O)C[C@@H](C(=O)N2CCCCC2)N(C)C(=O)[C@H](C2CCCCC2)N(C)C(=O)C2(CCCC2)NC(=O)[C@@H]2CCCN2C(=O)[C@H](CCc2ccc(C(F)(F)F)c(Cl)c2)NC(=O)CN(C)C(=O)[C@H](CC2CCCCC2)N(C)C(=O)[C@@H]2CCN2C(=O)[C@H](C)N(C)C1=O [Compound 249] ([NMeL]I[NMeA][Aze][NMeCha][Sar][hPhe(3-Cl-4-CF3)]P[Ac5c][NMeChg][NMeD]-Piperidide; lactam N-11)	100 to 500 nM
